Measured values reported in patent US20230111914A1, “SYNTHETIC TRITERPENOIDS WITH NITROGEN-BASED SUBSTITUENTS AT C-17 AND METHODS OF USE THEREOF” (REATA PHARMACEUTICALS, INC., priority 2019, published 2023).
Where “and” joins values, the source holds several entries; their conditions need not be identical. Equal values may be shown once. Read-outs that look alike come from different tables or passages of the source. Marks after values point to notes of the source that are not given here.

What was measured:
[1] = tested on: AREc32 reporter cell line (luciferase reporter under eight copies of the rat GSTA2 ARE sequence); assay: AREc32 luciferase reporter activation; assay type: cell-based, human; settings: for EC (2-fold): Homo sapiens, read-out: AREc32 EC2X (Mean ± SD); for AREc32 Relative to CC in Same Experiment (Mean ± SD): average of ratios from three replicate experiments
CYP3A4 = target: T1, CYP3A4 (Homo sapiens, UniProt P08684); assay: CYP3A4 (midazolam) inhibition in human liver microsomes; assay type: in vitro ADME; settings: probe midazolam; human liver microsomes 0.1 mg/mL, midazolam substrate, 1 μM test compound, 37° C. 10 min
T1 construct: containing 0.1 mg/mL human liver microsomes; from tissue; host or cells: human liver microsomes
Procedure: Methods. Several compounds were evaluated for CYP3A4 (midazolam) inhibition in human liver microsomes at 1 μM. CYP3A4 inhibition was tested using an in vitro assay as generally described in Dierks et al. (Drug Metabolism Deposition, 29:23-29, 2001, which is incorporated by reference herein). Each sample, containing 0.1 mg/mL human liver microsomes, […] as substrate, and 1 μM of test compound, was incubated at 37° C. for 10 min. Following incubation, the metabolite 1-hydroxymidazolam was measured using HPLC-MS/MS. Peak areas corresponding to the metabolite of the substrate were recorded. The percent of control activity was then calculated by comparing the peak area obtained in the presence of the test compound to that obtained in the absence of the test compound. Subsequently, the percent inhibition was calculated by subtracting the percent control activity from 100 for each compound.

[2] = tested on: IFNγ-induced NO production in RAW 264.7 cells; assay: Nitric oxide suppression assay (IFNγ-induced NO production, Griess nitrite readout); assay type: cell-based, mouse; settings: for IC50: Mus musculus
[3] = Arec32, concentration that increases the luminescence signal 2-fold above vehicle, 19 h treatment
[4] = RAW264.7, RAW 264.7 cells, 2 h pretreatment, 20 ng/mL interferon gamma 24 h, average of trials per footnote, read-out: NO IC50

T1 sequence (P08684 whole entry): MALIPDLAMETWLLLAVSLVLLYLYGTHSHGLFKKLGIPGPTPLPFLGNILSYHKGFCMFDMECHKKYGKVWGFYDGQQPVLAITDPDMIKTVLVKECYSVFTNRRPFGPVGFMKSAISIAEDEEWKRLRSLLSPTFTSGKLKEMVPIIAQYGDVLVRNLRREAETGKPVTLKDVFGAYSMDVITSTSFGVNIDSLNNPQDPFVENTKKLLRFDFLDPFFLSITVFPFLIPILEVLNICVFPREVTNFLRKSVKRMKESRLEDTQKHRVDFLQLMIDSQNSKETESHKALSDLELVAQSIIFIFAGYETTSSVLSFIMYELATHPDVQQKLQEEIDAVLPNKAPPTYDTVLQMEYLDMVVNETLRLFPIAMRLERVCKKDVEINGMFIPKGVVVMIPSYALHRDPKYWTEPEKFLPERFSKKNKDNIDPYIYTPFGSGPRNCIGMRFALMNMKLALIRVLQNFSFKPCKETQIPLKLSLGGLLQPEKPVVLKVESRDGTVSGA

CC1(C)CC[C@]2(Cn3ccnc3)CC[C@]3(C)[C@H](C(=O)C=C4[C@@]5(C)C=C(C#N)C(=O)C(C)(C)[C@@H]5CC[C@]43C)[C@@H]2C1 [Compound T17]
AREc32 EC2X Relative to RTA 402 (Mean ± SD) [1]: 1.6 ± 0.22^g fold | EC (2-fold) [1, 3]: 0.0162 ± 0.00085 µM | AREc32 Relative to CC in Same Experiment (Mean ± SD) ([1]; comparison compound CC2): 1.009 ± 0.052 | inhibition at 10 min, 1 µM (CYP3A4): 31.8%

CC1(C)CC[C@]2(n3cccn3)CC[C@]3(C)[C@H](C(=O)C=C4[C@@]5(C)C=C(C#N)C(=O)C(C)(C)[C@@H]5CC[C@]43C)[C@@H]2C1 [Compound T32]
AREc32 EC2X Relative to RTA 402 (Mean ± SD) [1]: 2.8 ± 0.62^f fold | EC (2-fold) [1, 3]: 0.0323 ± 0.00139 µM | NO IC50 Rel. to RTA 402 [2]: 2.58 ± 0.60^e fold | IC50 [2, 4]: 4.89 ± 1.42 nM

CC1(C)CC[C@]2(N3CCOC3=O)CC[C@]3(C)[C@H](C(=O)C=C4[C@@]5(C)C=C(C#N)C(=O)C(C)(C)[C@@H]5CC[C@]43C)[C@@H]2C1 [Compound T34]
AREc32 EC2X Relative to RTA 402 (Mean ± SD) [1]: 2.2^e fold | EC (2-fold) [1, 3]: 0.0236 µM | NO IC50 Rel. to RTA 402 [2]: 1.23 ± 0.23^e fold | IC50 [2, 4]: 2.23 ± 0.57 nM

CC1(C)CC[C@]2(N3CCC3=O)CC[C@]3(C)[C@H](C(=O)C=C4[C@@]5(C)C=C(C#N)C(=O)C(C)(C)[C@@H]5CC[C@]43C)[C@@H]2C1 [Compound T38]
AREc32 EC2X Relative to RTA 402 (Mean ± SD) [1]: 2.1^e fold | EC (2-fold) [1, 3]: 0.0361 µM | NO IC50 Rel. to RTA 402 [2]: 1.69 ± 0.84^e fold | IC50 [2, 4]: 4.32 ± 3.51 nM

CC1(C)CC[C@]2(n3cnnc3)CC[C@]3(C)[C@H](C(=O)C=C4[C@@]5(C)C=C(C#N)C(=O)C(C)(C)[C@@H]5CC[C@]43C)[C@@H]2C1 [Compound T39]
AREc32 EC2X Relative to RTA 402 (Mean ± SD) [1]: 9.8 ± 1.1^a fold | EC (2-fold) [1, 3]: 0.0943 ± 0.00426 µM | NO IC50 Rel. to RTA 402 [2]: 42.82 ± 14.24^e fold | IC50 [2, 4]: 84.5 ± 18.9 nM

CC1(C)CC[C@]2(n3ccoc3=O)CC[C@]3(C)[C@H](C(=O)C=C4[C@@]5(C)C=C(C#N)C(=O)C(C)(C)[C@@H]5CC[C@]43C)[C@@H]2C1 [Compound T40]
AREc32 EC2X Relative to RTA 402 (Mean ± SD) [1]: 1.8^e fold | EC (2-fold) [1, 3]: 0.0196 µM | NO IC50 Rel. to RTA 402 [2]: 1.37 ± 0.18^d fold | IC50 [2, 4]: 5.56 ± 0.72 nM

CC1(C)CC[C@]2(n3cc(CO)nn3)CC[C@]3(C)[C@H](C(=O)C=C4[C@@]5(C)C=C(C#N)C(=O)C(C)(C)[C@@H]5CC[C@]43C)[C@@H]2C1 [Compound T42]
AREc32 EC2X Relative to RTA 402 (Mean ± SD) [1]: 1.3 ± 0.34^f fold | EC (2-fold) [1, 3]: 0.0148 ± 0.00277 µM | AREc32 Relative to CC in Same Experiment (Mean ± SD) ([1]; comparison compound CC4): 0.490 ± 0.057 | NO IC50 Rel. to RTA 402 [2]: 2.97 ± 0.47^d fold | IC50 [2, 4]: 12.4 ± 3.92 nM

Cn1ccn([C@]23CCC(C)(C)C[C@H]2[C@H]2C(=O)C=C4[C@@]5(C)C=C(C#N)C(=O)C(C)(C)[C@@H]5CC[C@@]4(C)[C@]2(C)CC3)c1=O [Compound T46]
AREc32 EC2X Relative to RTA 402 (Mean ± SD) [1]: 3.0^e fold | EC (2-fold) [1, 3]: 0.0316 µM | NO IC50 Rel. to RTA 402 [2]: 2.62 ± 0.10^d fold | IC50 [2, 4]: 10.7 ± 1.35 nM

CC1(C)CC[C@]2(CN3CCOC3)CC[C@]3(C)[C@H](C(=O)C=C4[C@@]5(C)C=C(C#N)C(=O)C(C)(C)[C@@H]5CC[C@]43C)[C@@H]2C1 [Compound T47]
AREc32 EC2X Relative to RTA 402 (Mean ± SD) [1]: 8.6^e fold | EC (2-fold) [1, 3]: 0.122 µM | NO IC50 Rel. to RTA 402 [2]: 7.54 ± 2.47^d fold | IC50 [2, 4]: 17.3 ± 8.55 nM

CC1(C)CC[C@]2(Cn3cnnc3)CC[C@]3(C)[C@H](C(=O)C=C4[C@@]5(C)C=C(C#N)C(=O)C(C)(C)[C@@H]5CC[C@]43C)[C@@H]2C1 [Compound T49]
AREc32 EC2X Relative to RTA 402 (Mean ± SD) [1]: 4.5^e fold | EC (2-fold) [1, 3]: 0.0389 µM | NO IC50 Rel. to RTA 402 [2]: 13.72 ± 3.47^e fold | IC50 [2, 4]: 26.9 ± 10.5 nM

CC1(C)CC[C@]2(CN3NCCC3=O)CC[C@]3(C)[C@H](C(=O)C=C4[C@@]5(C)C=C(C#N)C(=O)C(C)(C)[C@@H]5CC[C@]43C)[C@@H]2C1 [Compound T51]
AREc32 EC2X Relative to RTA 402 (Mean ± SD) [1]: 1.1^e fold | EC (2-fold) [1, 3]: 0.0117 µM | NO IC50 Rel. to RTA 402 [2]: 2.04 ± 0.73^d fold | IC50 [2, 4]: 8.55 ± 3.65 nM

[2H]C([2H])([2H])C(=O)NC[C@]12CCC(C)(C)C[C@H]1[C@H]1C(=O)C=C3[C@@]4(C)C=C(C#N)C(=O)C(C)(C)[C@@H]4CC[C@@]3(C)[C@]1(C)CC2 [Compound T52]
AREc32 EC2X Relative to RTA 402 (Mean ± SD) [1]: 0.3^e fold | EC (2-fold) [1, 3]: 0.003 µM | NO IC50 Rel. to RTA 402 [2]: 0.28 ± 0.13^e fold | IC50 [2, 4]: 0.52 ± 0.24 nM

CCC(=O)NC[C@]12CCC(C)(C)C[C@H]1[C@H]1C(=O)C=C3[C@@]4(C)C=C(C#N)C(=O)C(C)(C)[C@@H]4CC[C@@]3(C)[C@]1(C)CC2 [Compound T53]
AREc32 EC2X Relative to RTA 402 (Mean ± SD) [1]: 0.2^e fold | EC (2-fold) [1, 3]: 0.0024 µM | NO IC50 Rel. to RTA 402 [2]: 0.21 fold and 0.21 ± 0.05^e fold | times more active (NO IC50) than 63189 relative to RTA 402 [2]: more than 19 times | IC50 [2, 4]: 0.38 nM

CC1(C)CC[C@]2(NNC(=O)C(F)(F)F)CC[C@]3(C)[C@H](C(=O)C=C4[C@@]5(C)C=C(C#N)C(=O)C(C)(C)[C@@H]5CC[C@]43C)[C@@H]2C1 [Compound T56]
AREc32 EC2X Relative to RTA 402 (Mean ± SD) [1]: 1.5^e fold | EC (2-fold) [1, 3]: 0.0155 µM | NO IC50 Rel. to RTA 402 [2]: 1.70 ± 0.32^d fold | IC50 [2, 4]: 7.04 ± 1.91 nM

CC1(C)CC[C@]2(N3CCC(=O)N3)CC[C@]3(C)[C@H](C(=O)C=C4[C@@]5(C)C=C(C#N)C(=O)C(C)(C)[C@@H]5CC[C@]43C)[C@@H]2C1 [Compound T58]
AREc32 EC2X Relative to RTA 402 (Mean ± SD) [1]: 5.3^e fold | EC (2-fold) [1, 3]: 0.0565 µM | NO IC50 Rel. to RTA 402 [2]: 2.97 ± 0.65^d fold | IC50 [2, 4]: 12.2 ± 3.32 nM

CC1(C)CC[C@]2(CNC(=O)C(C)(F)F)CC[C@]3(C)[C@H](C(=O)C=C4[C@@]5(C)C=C(C#N)C(=O)C(C)(C)[C@@H]5CC[C@]43C)[C@@H]2C1 [Compound T62]
AREc32 EC2X Relative to RTA 402 (Mean ± SD) [1]: 0.3^e fold | EC (2-fold) [1, 3]: 0.0035 µM | NO IC50 Rel. to RTA 402 [2]: 0.51 ± 0.18^d fold | IC50 [2, 4]: 2.12 ± 0.85 nM

CC1(C)CC[C@]2(CNC(=O)C(F)F)CC[C@]3(C)[C@H](C(=O)C=C4[C@@]5(C)C=C(C#N)C(=O)C(C)(C)[C@@H]5CC[C@]43C)[C@@H]2C1 [Compound T63]
AREc32 EC2X Relative to RTA 402 (Mean ± SD) [1]: 0.4^e fold | EC (2-fold) [1, 3]: 0.004 µM | NO IC50 Rel. to RTA 402 [2]: 0.36 ± 0.11^d fold | IC50 [2, 4]: 1.48 ± 0.54 nM

C[C@@H]1C(=O)C(C#N)=C[C@]2(C)C3=CC(=O)[C@@H]4[C@@H]5CC(C)(C)CC[C@]5(CN5CCC5=O)CC[C@@]4(C)[C@]3(C)CC[C@@H]12 [Compound T65]
AREc32 EC2X Relative to RTA 402 (Mean ± SD) [1]: 0.4^e fold | EC (2-fold) [1, 3]: 0.0047 µM | NO IC50 Rel. to RTA 402 [2]: 0.36 ± 0.12^e fold | IC50 [2, 4]: 0.42 ± 0.13 nM

C[C@@H]1C(=O)C(C#N)=C[C@]2(C)C3=CC(=O)[C@@H]4[C@@H]5CC(C)(C)CC[C@]5(CN5CCCC5=O)CC[C@@]4(C)[C@]3(C)CC[C@@H]12 [Compound T66]
AREc32 EC2X Relative to RTA 402 (Mean ± SD) [1]: 0.4^e fold | EC (2-fold) [1, 3]: 0.0046 µM | NO IC50 Rel. to RTA 402 [2]: 0.39 ± 0.09^e fold | IC50 [2, 4]: 0.45 ± 0.09 nM

CC1(C)CC[C@]2(CNC(=O)CF)CC[C@]3(C)[C@H](C(=O)C=C4[C@@]5(C)C=C(C#N)C(=O)C(C)(C)[C@@H]5CC[C@]43C)[C@@H]2C1 [Compound T67]
AREc32 EC2X Relative to RTA 402 (Mean ± SD) [1]: 0.3^e fold | EC (2-fold) ([1]; Arec32, 19 h): 0.0033 µM | NO IC50 Rel. to RTA 402 [2]: 0.38 ± 0.15^d fold | IC50 ([2]; RAW264.7, read-out: NO IC50): 0.51 ± 0.31 nM

COC(=O)[C@]12CCC(C)(C)C[C@H]1[C@H]1C(=O)C=C3[C@@]4(C)C=C(C#N)C(=O)C(C)(C)[C@@H]4CC[C@@]3(C)[C@]1(C)CC2 [RTA 402, reference compound]
AREc32 EC2X Relative to RTA 402 (Mean ± SD) [1]: 1.00 fold | EC (2-fold) [1, 3]: 0.0118 ± 0.0029 µM | NO IC50 Rel. to RTA 402 [2]: 1.00 ± 0.00 fold | IC50 [2, 4]: 2.58 ± 1.19 nM
